Experimental data as given in the supplement of paper PMC11061612.

Legend:
Test in all cases: Bliss excess, mean over the matrix (fraction); higher = more synergy
[1] = system: ATN-1 (T-Lymphoblastic Leukemia)
Summary of the method: (§1)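 After 24 hours at 37°C and 5% CO2 in 1536-well plates, cells in DMEM/F12 or RPMI plus 10% FBS received two-drug dose matrices for 72 hours. Viability came from CellTiter-Glo 2.0 luminescence and was scaled as inhibition, anchored at 0 by vehicle wells and at 1 by blank wells. Combination Emax is taken as the second-highest inhibition in the matrix, and Bliss excess as the observed combination effect less EA + EB − EA·EB, with EA and EB the single-agent effects.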

[2] = system: BT-474 (Breast Carcinoma)
Summary of the method: as §1

[3] = system: C2BBe1 (Colorectal Carcinoma)
Summary of the method: as §1

C32 (Melanoma) = system: C32 (Melanoma)
Summary of the method: as §1

[4] = system: CAL-85-1 (Breast Carcinoma)
Summary of the method: as §1

[5] = system: COR-L105 (Lung Adenocarcinoma)
Summary of the method: as §1

[6] = system: IGROV-1 (Ovarian Carcinoma)
Summary of the method: as §1

[7] = system: JURL-MK1 (Chronic Myelogenous Leukemia)
Summary of the method: as §1

[8] = system: L-363 (Plasma Cell Myeloma)
Summary of the method: as §1

MG-63 (Osteosarcoma) = system: MG-63 (Osteosarcoma)
Summary of the method: as §1

[9] = system: NCI-H1435 (Non-Small Cell Lung Carcinoma)
Summary of the method: as §1

[10] = system: NCI-H1944 (Lung Adenocarcinoma)
Summary of the method: as §1

[11] = system: NCI-H2009 (Lung Adenocarcinoma)
Summary of the method: as §1

NCI-H2452 (Mesothelioma) = system: NCI-H2452 (Mesothelioma)
Summary of the method: as §1

[12] = system: NTERA-2-cl-D1 (Other Solid Carcinomas)
Summary of the method: as §1

[13] = system: OCI-M1 (Acute Myeloid Leukemia)
Summary of the method: as §1

[14] = system: SBC-3 (Small Cell Lung Carcinoma)
Summary of the method: as §1

[15] = system: SW1463 (Colorectal Carcinoma)
Summary of the method: as §1

[16] = system: TK (B-Cell Non-Hodgkin's Lymphoma)
Summary of the method: as §1

SMILES	Bliss excess [1]	Bliss excess [2]	Bliss excess [3]	Bliss excess (C32 (Melanoma))	Bliss excess [4]	Bliss excess [5]	Bliss excess [6]	Bliss excess [7]	Bliss excess [8]	Bliss excess (MG-63 (Osteosarcoma))	Bliss excess [9]	Bliss excess [10]	Bliss excess [11]	Bliss excess (NCI-H2452 (Mesothelioma))	Bliss excess [12]	Bliss excess [13]	Bliss excess [14]	Bliss excess [15]	Bliss excess [16]
CN(CCO)CC[C@H](CSc1ccccc1)Nc1ccc(S(=O)(=O)NC(=O)c2ccc(N3CCC([C@@H](O)c4ccccc4-c4ccc(Cl)cc4)CC3)cc2)cc1S(=O)(=O)C(F)(F)F [AZD4320] + Cn1cnc2c(F)c(Nc3ccc(Br)cc3Cl)c(C(=O)NOCCO)cc21 [Selumetinib] (first compound max 1 µM, 7x7, partner max 3 µM)	-0.0611	-0.002	0.0082	0.0196	-0.0492	0.0181	0.0542	0.0111	0.0311	-0.0179	0.0507	0.0427	-0.006	-0.0688	-0.0415	0.0503	-0.0148	0.0106	-0.032
CC1(C)CCC(CN2CCN(c3ccc(C(=O)NS(=O)(=O)c4ccc(NCC5CCOCC5)c([N+](=O)[O-])c4)c(Oc4cnc5[nH]ccc5c4)c3)CC2)=C(c2ccc(Cl)cc2)C1 [Venetoclax] + Cc1cc2ncnn2cc1Nc1ncc2c(n1)n(C1CCOCC1)c(=O)n2C [AZD7648] (first compound max 1 µM, 7x7, partner max 10 µM)	0.0196	-0.0622	-0.0132	-0.0219	-0.0251	-0.0512	-0.0589	-0.0068	0.0281	-0.0405	-0.0088	0.0189	-0.053	-0.0388	-0.0216	-0.0153	-0.0729	-0.0479	0.0006
CC1(C)CCC(CN2CCN(c3ccc(C(=O)NS(=O)(=O)c4ccc(NCC5CCOCC5)c([N+](=O)[O-])c4)c(Oc4cnc5[nH]ccc5c4)c3)CC2)=C(c2ccc(Cl)cc2)C1 [Venetoclax] + CCN(CCO)CCCOc1ccc2c(Nc3cc(CC(=O)Nc4cccc(F)c4)[nH]n3)ncnc2c1 [AZD2811] (first compound max 1 µM, 7x7, partner max 1 µM)	0.0113	-0.0035	-0.0368	-0.0014	-0.032	-0.0608	-0.0091	0.0208	0.0141	-0.0699	0.0104	-0.0272	-0.035	0.0268	0.0826	0.0061	0.0166	-0.0389	0.0051
Cc1c2c(nn1C)CSCc1cc(n(C)n1)CSc1cc(c3ccccc3c1)OCCCc1c(C(=O)O)n(C)c3c-2c(Cl)ccc13 [AZD5991] + C[C@@H]1COCCN1C2=NC(=NC(=C2)C3(CC3)[S@](=N)(=O)C)C4=C5C=CNC5=NC=C4 [AZD6738] (first compound max 1 µM, 7x7, partner max 10 µM)	0.0085	0.0367	-0.0093	0.0531	-0.0233	-0.0407	0.0449	0.0056	-0.0625	0.0127	0.0488		0.0199	0.0425	0.0936	0.0061	0.0405	-0.023	0.0536
C[C@@H]1COCCN1c1cc(C2([S@](C)(=N)=O)CC2)nc(-c2ccnc3[nH]ccc23)n1 [AZD6738] + O=C(c1cc(Cc2n[nH]c(=O)c3ccccc23)ccc1F)N1CCN(C(=O)C2CC2)CC1 [Olaparib] (first compound max 10 µM, 7x7, partner max 10 µM)	0.0169	-0.0135	0.0009	0.0019	-0.0003	-0.0435	-0.0169	-0.021	-0.0892	0.047	0.0203	0.0194	0.0046	-0.0415	0.0898	-0.017	-0.0328		-0.0552
CC(=O)c1c(C)c2cnc(Nc3ccc(N4CCNCC4)cn3)nc2n(C2CCCC2)c1=O [Palbociclib] + CN(CC[C@H](CSC1=CC=CC=C1)NC2=C(C=C(C=C2)S(=O)(=O)NC(=O)C3=CC=C(C=C3)N4CCC(CC4)[C@H](C5=CC=CC=C5C6=CC=C(C=C6)Cl)O)S(=O)(=O)C(F)(F)F)CCO [AZD4320] (first compound max 10 µM, 7x7, partner max 1 µM)	-0.0253	-0.108	-0.0652	-0.0713			-0.0143	-0.075				-0.0915				-0.014			0.0858
COc1nnc2ccc(N3CCC(c4ccc(OCCN5CCN(C)C(=O)[C@H]5C)cc4)CC3)nn12 [AZD5153] + CN(CC[C@H](CSC1=CC=CC=C1)NC2=C(C=C(C=C2)S(=O)(=O)NC(=O)C3=CC=C(C=C3)N4CCC(CC4)[C@H](C5=CC=CC=C5C6=CC=C(C=C6)Cl)O)S(=O)(=O)C(F)(F)F)CCO [AZD4320] (first compound max 1 µM, 7x7, partner max 1 µM)	-0.0165	0.0941	-0.0521	0.0176			0.0077	-0.0137				0.0269				-0.0095			-0.0154
CN(CCO)CC[C@H](CSc1ccccc1)Nc1ccc(S(=O)(=O)NC(=O)c2ccc(N3CCC([C@@H](O)c4ccccc4-c4ccc(Cl)cc4)CC3)cc2)cc1S(=O)(=O)C(F)(F)F [AZD4320] + C=CCn1c(=O)c2cnc(Nc3ccc(N4CCN(C)CC4)cc3)nc2n1-c1cccc(C(C)(C)O)n1 [AZD1775] (first compound max 1 µM, partner max 1 µM)	0.0695	-0.0232	-0.0286	0.108	0.0019	0.0129	0.0505	0.0098	0.032	-0.0262	0.0482	0.0312		0.0257	0.13	0.0479	-0.0172	-0.044	0.0407
